Measured values as given in ChEMBL document CHEMBL1121723 (J Med Chem, 1981).

Test system: Thromboxane-A synthase (Oryctolagus cuniculus)
Assay: Compound was tested for its inhibitory activity against Thromboxane synthetase
Details: concentration not given here

Q: For N#CCCCCCCCn1ccnc1, which inhibition is on record?
A: 0%

Q: CSCCCCCCCCn1ccnc1 was tested. Which inhibition did it give?
A: 11.4%

Q: O=S(=O)(O)CCCCCCn1ccnc1 was tested. Which inhibition did it give?
A: 8.8%

Q: Which inhibition does the source give for SCCCCCCCCn1ccnc1 here?
A: 17.5%

Test system: Thromboxane-A synthase (Oryctolagus cuniculus)
Assay: Compound was tested for its inhibitory activity against Thromboxane synthetase at 25 nM
Details: not given

Q: Which inhibition does the source give for c1cn(CCCCCCCn2ccnc2)cn1 here?
A: 13.4%

Q: For C[S+]([O-])CCCCCCCCn1ccnc1 (stereo not given), which inhibition is on record?
A: 9%

Biological target: Thromboxane-A synthase (Oryctolagus cuniculus)
Assay: Inhibitory activity against rabbit thromboxane synthetase
Details: not given

Q: For O=C(O)CCCc1ccc(-n2ccnc2)cc1, which IC50 is on record?
A: 0.12 µM

Q: How did the IC50 turn out when O=C(O)Cc1ccc(CCn2ccnc2)cc1 was run?
A: 1.5 µM

Q: For O=C(O)C(O)CCCCCCn1ccnc1 (stereo not given), which IC50 is on record?
A: 0.14 µM

Q: With O=C(O)C(CO)CCCCCCn1ccnc1 (stereo not given) as the compound, how does the IC50 read?
A: 0.25 µM

Q: Which IC50 does the source give for O=C(O)c1ccc(CCCn2ccnc2)cc1 here?
A: 0.005 µM

Q: For O=C(O)C(CCCCCCn1ccnc1)C(=O)O, which IC50 is on record?
A: 0.55 µM

Q: NC(CCCCCCn1ccnc1)C(=O)O (stereo not given) was tested. Which IC50 did it give?
A: > 1 µM

Q: How did the IC50 turn out when c1cn(CCCCCCCn2ccnc2)cn1 was run?
A: 2 µM

Q: For Cc1nccn1CCCCCCC(=O)O, which IC50 is on record?
A: > 1 µM

Q: O=C(O)COc1ccccc1Cn1ccnc1 was tested. Which IC50 did it give?
A: 0.21 µM

Q: For O=C(O)/C=C/c1cccc(Cn2ccnc2)c1, which IC50 is on record?
A: 0.032 µM

Q: How did the IC50 turn out when CC(C)(CC/C=C/C=C/C(=O)O)n1ccnc1 was run?
A: 0.45 µM

Q: With CC(C)(CCCC#CCn1ccnc1)C(=O)O as the compound, how does the IC50 read?
A: 0.009 µM

Q: How did the IC50 turn out when O=C(O)c1ccc(/C=C/Cn2ccnc2)cc1 was run?
A: 0.044 µM

Q: Which IC50 does the source give for C[S+]([O-])CCCCCCCCn1ccnc1 (stereo not given) here?
A: 3.3 µM

Q: How did the IC50 turn out when O=C(O)CCCCCCc1ncc[nH]1 was run?
A: 20 µM

Q: For CC(=O)CCCCCCCn1ccnc1, which IC50 is on record?
A: > 1 µM

Q: With O=C(O)CCCc1ccc(Cn2ccnc2)cc1 as the compound, how does the IC50 read?
A: 1.2 µM

Q: For O=C(O)CCCCCCc1c[nH]cn1, which IC50 is on record?
A: 20 µM

Q: For CC(C)(Oc1ccc(Cn2ccnc2)cc1)C(=O)O, which IC50 is on record?
A: 0.025 µM

Q: With O=C(O)COc1ccc(Cn2ccnc2)cc1 as the compound, how does the IC50 read?
A: 0.04 µM

Q: For O=C(CCCCCCCn1ccnc1)c1ccccc1, which IC50 is on record?
A: 0.134 µM

Q: How did the IC50 turn out when O=C(O)/C=C/c1ccc(OCCn2ccnc2)cc1 was run?
A: 0.25 µM

Q: For CC(Oc1ccc(Cn2ccnc2)cc1)C(=O)O (stereo not given), which IC50 is on record?
A: 0.038 µM
